Assay results reported in patent publication US20060257436A1, “Skin preparation composition for external use” (Shiseido Company, Ltd., priority 2003, published 2006).
Values after ≈ are worked out from the molar mass of the structure shown. Read-outs that look alike come from different tables or passages of the source.

Tests used:
[1] = test system: Candida albicans (ATCC10231); test: Minimum inhibiting concentration (MIC), agar plate method; format: cell-based
Protocol: (§1) Using the agar plate method, for bacteria, the following various bacteria were inoculated in SCD agar media (made by Eiken) containing 3-hexine-2,5-diol in different concentrations and cultured at 30° C. for 24 hours. […] Further, for fungi, the following various bacteria were inoculated in a potato dextrose agar media containing 3-hexine-2,5-diol in different concentrations and cultured at 25° C. for 48 hours. […] The same was conducted for methyl paraoxybenzoate methyl. The results of the judgment are shown in Table 1 based on the following evaluation criteria:
as §1, with “III-1” for “1”
as §1, with “media containing the test compound, in different” for “media containing 3-hexine-2,5-diol in different”, “in Table VII-1 based on” for “in Table 1 based on”, “evaluation criteria: […]” for “evaluation criteria:”

[2] = test system: Aspergillus niger (ATCC16404); test: as above; format: cell-based
Protocol: as §1
as §1, with “III-1” for “1”
as §1, with “media containing the test compound, in different” for “media containing 3-hexine-2,5-diol in different”, “in Table VII-1 based on” for “in Table 1 based on”, “evaluation criteria: […]” for “evaluation criteria:”

[3] = test system: Pseudomonas aeuginosa (ATCC15442); test: as above; format: cell-based
Protocol: as §1
as §1, with “III-1” for “1”
as §1, with “media containing the test compound, in different” for “media containing 3-hexine-2,5-diol in different”, “in Table VII-1 based on” for “in Table 1 based on”, “evaluation criteria: […]” for “evaluation criteria:”

[4] = test system: Staphylococcus aureus (ATCC6538); test: as above; format: cell-based
Protocol: as §1
as §1, with “III-1” for “1”
as §1, with “media containing the test compound, in different” for “media containing 3-hexine-2,5-diol in different”, “in Table VII-1 based on” for “in Table 1 based on”, “evaluation criteria: […]” for “evaluation criteria:”

[5] = test system: Escherichia coli (ATCC8739); test: as above; format: cell-based
Protocol: as §1
as §1, with “III-1” for “1”
as §1, with “media containing the test compound, in different” for “media containing 3-hexine-2,5-diol in different”, “in Table VII-1 based on” for “in Table 1 based on”, “evaluation criteria: […]” for “evaluation criteria:”

[6] = in vivo
Protocol: (§2) The 3-hexine-2,5-diol of the present invention was tested for safety.
(§3) The glycerol derivatives of the present invention i.e., 3-phenoxy-1,2-propane diol and 3-benzyloxy-1,2-propane diol, were tested for safety.
(§4) The 2,2-dimethyl-1-phenyl-1,3-propanediol of the present invention was tested for safety.

[7] = in vivo; remark: listed apart in the source
Protocol: as §2, §3, §4

[8] = in vivo; remark: listed apart in the source
Protocol: as §2, §3, §4

[9] = Skin sensitization test; conditions: in vivo
Protocol: as §2, §3, §4

[10] = Continuous skin irritation test; conditions: in vivo
Protocol: as §2, §3, §4

[11] = Genetic toxicity test
Protocol: as §2, §3, §4

[12] = Primary skin irritation test; conditions: in vivo
Protocol: as §2, §3, §4

[13] = Candida albicans (ATCC10231), read-out: Antimicrobial effect (minimum inhibiting concentration rank)
[14] = Aspergillus niger (ATCC16404), read-out: Antimicrobial effect (minimum inhibiting concentration rank)
[15] = Pseudomonas aeuginosa (ATCC15442), read-out: Antimicrobial effect (minimum inhibiting concentration rank)
[16] = Staphylococcus aureus (ATCC6538), read-out: Antimicrobial effect (minimum inhibiting concentration rank)
[17] = Escherichia coli (ATCC8739), read-out: Antimicrobial effect (minimum inhibiting concentration rank)
[18] = Table I-1, potato dextrose agar media, 25° C., 48 hours
[19] = Table I-1, SCD agar media, 30° C., 24 hours
[20] = Table III-1, potato dextrose agar media, 25° C., 48 hours
[21] = Table III-1, SCD agar media, 30° C., 24 hours

CC(C)(CO)C(O)c1ccccc1 (stereo not drawn)
MIC [1, 13]: < 1000 µg/mL
MIC [2, 14]: < 1000 µg/mL
MIC [3, 15]: < 1000 µg/mL
MIC [4, 16]: < 1000 µg/mL
MIC [5, 17]: < 1000 µg/mL
toxicity (single administration toxicity test) (single administration): extremely weak
skin sensitization test result [6]: negative
skin irritability (continuous skin irritation test) [7]: extremely weak
skin irritability (primary skin irritation test) [8]: extremely weak

OCC(O)COCc1ccccc1 (stereo not drawn) [3-Benzyloxy-1,2-propane diol, 3-benzyloxy-1,2-propanediol]
MIC ([1]; Candida albicans, ATCC10231, Table III-1, potato dextrose agar media, 25° C., 48 hours, read-out: Antimicrobial effect: minimum inhibiting concentration (MIC)): < 1000 µg/mL
MIC ([2]; Aspergillus niger, ATCC16404, Table III-1, potato dextrose agar media, 25° C., 48 hours, read-out: Antimicrobial effect: minimum inhibiting concentration (MIC)): < 1000 µg/mL
MIC ([3]; Pseudomonas, ATCC15442, Table III-1, SCD agar media, 30° C., 24 hours, read-out: Antimicrobial effect: minimum inhibiting concentration (MIC)): < 1000 µg/mL
MIC ([4]; Staphylococcus aureus, ATCC6538, Table III-1, SCD agar media, 30° C., 24 hours, read-out: Antimicrobial effect: minimum inhibiting concentration (MIC)): < 1000 µg/mL
MIC ([5]; Escherichia coli, ATCC8739, Table III-1, SCD agar media, 30° C., 24 hours, read-out: Antimicrobial effect: minimum inhibiting concentration (MIC)): < 1000 µg/mL
toxicity (single administration toxicity test) (single administration): extremely weak
skin sensitization test result [6]: negative
skin irritability (continuous skin irritation test) [7]: extremely weak
skin irritability (primary skin irritation test) [8]: extremely weak

OCC(O)COc1ccccc1 (stereo not drawn) [3-Phenoxy-1,2-propane diol, 3-phenoxy-1,2-propanediol]
MIC ([1]; Candida albicans, ATCC10231, 48 h, read-out: Antimicrobial effect: minimum inhibiting concentration (MIC)): < 1000 µg/mL
MIC ([2]; Aspergillus niger, ATCC16404, 48 h, read-out: Antimicrobial effect: minimum inhibiting concentration (MIC)): < 1000 µg/mL
MIC ([3]; Pseudomonas, ATCC15442, 24 h, read-out: Antimicrobial effect: minimum inhibiting concentration (MIC)): < 1000 µg/mL
MIC ([4]; Staphylococcus aureus, ATCC6538, 24 h, read-out: Antimicrobial effect: minimum inhibiting concentration (MIC)): < 1000 µg/mL
MIC ([5]; Escherichia coli, ATCC8739, 24 h, read-out: Antimicrobial effect: minimum inhibiting concentration (MIC)): < 1000 µg/mL
toxicity (single administration toxicity test) (in vivo): extremely weak
skin sensitization test result [6]: negative
skin irritability (continuous skin irritation test) [7]: extremely weak
skin irritability (primary skin irritation test) [8]: extremely weak

CC(O)C#CC(C)O (stereo not drawn) [3-hexine-2,5-diol]
Antimicrobial effect: minimum inhibiting concentration (MIC) [1, 18]: A (Minimum inhibiting concentration of less than 1000 ppm)
Antimicrobial effect: minimum inhibiting concentration (MIC) [2, 18]: A (Minimum inhibiting concentration of less than 1000 ppm)
Antimicrobial effect: minimum inhibiting concentration (MIC) [3, 19]: A (Minimum inhibiting concentration of less than 1000 ppm)
Antimicrobial effect: minimum inhibiting concentration (MIC) [4, 19]: A (Minimum inhibiting concentration of less than 1000 ppm)
Antimicrobial effect: minimum inhibiting concentration (MIC) [5, 19]: A (Minimum inhibiting concentration of less than 1000 ppm)
skin sensitization test result [9]: negative
toxicity (single administration toxicity test) (single administration): extremely weak
skin irritability (continuous skin irritation test) [10]: extremely weak
genetic toxicity test result [11]: negative
skin irritability (primary skin irritation test) [12]: extremely weak

COC(=O)c1ccc(O)cc1 [Methyl paraoxybenzoate, reference compound]
MIC ([1]; Candida albicans (ATCC10231), read-out: Antimicrobial effect (minimum inhibiting concentration class)): 1000 to 5000 µg/mL (≈ 6.57 to 32.9 mM)
MIC [1, 13]: 1000 to 5000 µg/mL (≈ 6.57 to 32.9 mM)
MIC ([1]; Candida albicans, ATCC10231, Table I-1, potato dextrose agar media, 25° C., 48 hours, read-out: Antimicrobial effect: minimum inhibiting concentration (MIC)): 1000 to 5000 µg/mL (≈ 6.57 to 32.9 mM)
Antimicrobial effect: minimum inhibiting concentration (MIC) [1, 20]: B (Minimum inhibiting concentration of 1000 ppm to less than 5000 ppm)
MIC ([2]; Aspergillus niger (ATCC16404), read-out: Antimicrobial effect (minimum inhibiting concentration class)): 1000 to 5000 µg/mL (≈ 6.57 to 32.9 mM)
MIC [2, 14]: 1000 to 5000 µg/mL (≈ 6.57 to 32.9 mM)
MIC ([2]; Aspergillus niger, ATCC16404, Table I-1, potato dextrose agar media, 25° C., 48 hours, read-out: Antimicrobial effect: minimum inhibiting concentration (MIC)): 1000 to 5000 µg/mL (≈ 6.57 to 32.9 mM)
Antimicrobial effect: minimum inhibiting concentration (MIC) [2, 20]: B (Minimum inhibiting concentration of 1000 ppm to less than 5000 ppm)
MIC ([3]; Pseudomonas aeuginosa (ATCC15442), read-out: Antimicrobial effect (minimum inhibiting concentration class)): 5000 to 10000 µg/mL (≈ 32.9 to 65.7 mM)
MIC [3, 15]: 5000 to 10000 µg/mL (≈ 32.9 to 65.7 mM)
MIC ([3]; Pseudomonas, ATCC15442, Table I-1, SCD agar media, 30° C., 24 hours, read-out: Antimicrobial effect: minimum inhibiting concentration (MIC)): 5000 to 10000 µg/mL (≈ 32.9 to 65.7 mM)
Antimicrobial effect: minimum inhibiting concentration (MIC) [3, 21]: C (Minimum inhibiting concentration of 5000 ppm to less than 10000 ppm)
MIC ([4]; Staphylococcus aureus (ATCC6538), read-out: Antimicrobial effect (minimum inhibiting concentration class)): 1000 to 5000 µg/mL (≈ 6.57 to 32.9 mM)
MIC [4, 16]: 1000 to 5000 µg/mL (≈ 6.57 to 32.9 mM)
MIC ([4]; Staphylococcus aureus, ATCC6538, Table I-1, SCD agar media, 30° C., 24 hours, read-out: Antimicrobial effect: minimum inhibiting concentration (MIC)): 1000 to 5000 µg/mL (≈ 6.57 to 32.9 mM)
Antimicrobial effect: minimum inhibiting concentration (MIC) [4, 21]: B (Minimum inhibiting concentration of 1000 ppm to less than 5000 ppm)
MIC ([5]; Escherichia coli (ATCC8739), read-out: Antimicrobial effect (minimum inhibiting concentration class)): 1000 to 5000 µg/mL (≈ 6.57 to 32.9 mM)
MIC [5, 17]: 1000 to 5000 µg/mL (≈ 6.57 to 32.9 mM)
MIC ([5]; Escherichia coli, ATCC8739, Table I-1, SCD agar media, 30° C., 24 hours, read-out: Antimicrobial effect: minimum inhibiting concentration (MIC)): 1000 to 5000 µg/mL (≈ 6.57 to 32.9 mM)
Antimicrobial effect: minimum inhibiting concentration (MIC) [5, 21]: B (Minimum inhibiting concentration of 1000 ppm to less than 5000 ppm)
